Source: patent publication US20250177564A1, “GENE THERAPY FOR THE TREATMENT OF HT1” (LogicBio Therapeutics, Inc., priority 2021, published 2025)

Tests used:
Fah−/− mice [1] = test: Compatibility between NTBC (standard of care) and GENERIDE, NTBC titration; type: in vivo, mouse; details: high doses of NTBC
Experimental: Four-week-old Fah−/− animals were treated with rAAV.DJ-GR-mFAH at dosages of 1e14 vg/kg via retro-orbital sinus under anesthesia. All mice were kept on 8 mg/L of NTBC prior to the initiation of the study until 4 weeks post dosing, and then NTBC were either maintained at 8 mg/L (control) or titrated down to 3 mg/L, 0.8 mg/L, or 0.3 mg/L for 8 weeks. During the study, animals were sampled periodically by submandibular bleed and plasma was collected and stored at −80° C. until further analysis. At sacrifices, blood was collected for plasma via cardiac puncture. For liver dissection, one lobe of liver was fixed by 10% formalin, and the remaining was snap-frozen and stored at −80° C. Next day, formalin-fixed liver was transferred to 70% ethanol for paraffin embedding.
Viral vectors comprising an AAV-DJ viral capsid, mouse FAH (mFAH) transgene, P2A sequence, and flanking 5′ homology arm 1000 nucleotides (nt) in length and a 3′ homology arm 1600 nt in length homology arms were constructed. Homology arms were designed for complementarity to a mouse genomic albumin target integration site. Viral vectors herein described were administered at a dosage of 1e14 vg/kg to […] groups (Groups 1, 2, 3, 4) of Fah−/− mice via intravenous injection at 4 weeks of age. […] Mice were assessed for circulating biomarkers (e.g., levels of ALB-2A) for up to 6 weeks post-NTBC titration (FIG. 4B).

Fah−/− mice [2] = test: Disease progression and resolution with and without NTBC (NTBC cycling); type: in vivo, mouse
Experimental: Fah−/− mice were kept on 8 mg/L of NTBC-drinking water prior to the initiation of the study at 7 weeks of age. Animals were then supplied with regular water (NTBC off) for 7 days, followed by NTBC-containing water at 8 mg/L for another 7 days. The above cycling was repeated for another 14 days. During the study, animals were monitored for daily body weight. Submandibular blood and urine were sampled periodically, and serum and plasma were collected and stored at −80° C. until further analysis. At sacrifice, blood was collected for plasma via cardiac puncture. For liver dissection, one lobe of liver was fixed by 10% formalin, and the remaining was snap-frozen and stored at −80° C. The following day, the formalin-fixed liver was transferred to 70% ethanol for paraffin embedding.

HT1 patients = details: cited from earlier work

O=C1CCCC(=O)C1C(=O)c1ccc(C(F)(F)F)cc1[N+](=O)[O-] [NTBC, 2-(2-nitro-4-trifluoromethylbenzoyl)-1,3cyclohexanedione]
effect on selective expansion of GENERIDE edited cells (hepatocytes) (Fah−/− mice [1]): prevent selective expansion | time to restore levels of disease biomarkers (SUAC) and liver synthetic function (aPTT, ALT, blood glucose) (Fah−/− mice [2]; NTBC 8 mg/L drinking water): less than 7 days | time to abnormal levels of disease biomarkers (SUAC) and liver synthetic function upon withdrawal (Fah−/− mice [2]; NTBC withdrawal): less than 3 days | risk of developing HCC, NTBC started after the neonatal period compared to patients treated as neonates (HT1 patients): 2-12 fold
